# Data reported in patent publication US20080167272A1, “Thalidomide metabolites and methods of use” (Auckland Uniservices Limited, priority 2005, published 2008).
# Experiments:
# [1] = tested on: ECV304 cells; assay: MTT cytotoxicity assay; format: cell-based, human; settings: 18 h, 2-250/g/ml, vs untreated or DMSO-treated cultures
# Description: The 3-(4,5-dimethylthiazol-2-yl)-2,5-diphenyl tetrazolium bromide (MTT) assay, which measures mitochondrial metabolic activity, was used to determine cell viability (Mosmann, 1983). Cells (4×10^3/well) were cultured with various concentrations of thalidomide, CG, PG and PiG in a final volume of 100 μl M199 medium (Gibco, Grand Island, N.Y., USA) supplemented with 10% foetal bovine serum ([…] streptomycin sulphate and 100 units/ml penicillin-G (Sigma, St Louis, Calif., USA) in flat-bottomed 96-well plates at 37° C. at 5% CO2 for 18 h. At the end of the incubation period, 10 μl of MTT (Sigma, St. Louis, Mo., 5 mg/ml in PBS) was added to each well, and the cells were further incubated for 2 h. The supernatants were then removed and the formazan crystals in the cells were dissolved by the addition of 100 μl of DMSO per well, and the absorbance at 590 nm was read using a plate reader. Each concentration of drug was tested in triplicate wells, and the mean ±standard error of the mean (SEM) was calculated.
# [2] = tested on: TNF; assay: Modulation of TNF production in Colon 38 tumour-bearing mice (serum and tumour, ELISA); format: in vivo; settings: 3 h; for effect on DMXAA-induced tumour TNF level: FIG. 3B
# Description: Mice with Colon 38 tumours, approximately 5-7 mm in diameter, were divided into groups of 5. One group was untreated. Other groups were treated with DMXAA (25 mg/kg) alone; DMXAA (25 mg/kg)+thalidomide (100 mg/kg), DMXAA (25 mg/kg)+PG (100 mg/kg), DMXAA (25 mg/kg)+PiG (100 mg/kg), DMXAA (25 mg/kg)+CG (100 mg/kg), DMXAA (25 mg/kg)+thalidomide (20 mg/kg), DMXAA (25 mg/kg)+CG (20 mg/kg), and thalidomide, PG, PiG or CG only at 100 and 200 mg/kg. Three hours after treatment, mice were anaesthetized with halothane (NZ Pharmacology Ltd., Christchurch, New Zealand), and blood was collected from the ocular sinus and tumours were excised. Blood was coagulated overnight at 4° C., and then centrifuged for 30 min at 2,000×g and 4° C., and the serum was removed and stored at −80° C. until use. Tumour tissues were weighed and homogenized in 1.5 ml α-minimal essential medium (Gibco, Grand Island, N.Y., USA). The homogenates were centrifuged (2,000×g, 30 min, 4° C.) and supernatant was removed and re-centrifuged (14,000×g, 30 min, 4° C.). The final supernatants were removed and kept at −80° C. until use. TNF levels in serum and supernatants derived from tumour homogenates were assayed for TNF as described in section 4 (below).
# (§1) TNF was assayed using a commercially available ELISA kit (OpEIA human or murine TNF kit, PharMingen, San Diego, Calif., USA), according to the manufacturer's instructions. Briefly, samples (100 μl/well) in duplicate together with a serial dilution of TNF (31.25-2000 pg/ml) for the standard curve, were added to flat-bottom 96-well plates pre-coated with immobilised monoclonal anti-TNF antibody and incubated at room temperature for 2 h. The wells were then washed, biotinylated polyclonal antibody to TNF was added, followed by peroxidase-labelled streptavidin, and incubated at room temperature for 1 h. The wells were washed again, and the substrate, tetramethylbenzidine and hydrogen peroxide was added and after 10 min the reaction was stopped with 2 N sulphuric acid. The absorbance at 450 nm was determined using a microtitre plate reader.
# [3] = tested on: TNF; assay: LPS-induced TNF production by HPBL in culture; format: cell-based, human; settings: FIG. 5
# Description: Blood (20 ml) each from seven healthy volunteers was collected into heparinized tubes, and was overlayed on top of 10 ml of Ficoll-Paque Plus (Amersham Biosciences AB, Uppsala, Sweden) in 50 ml Falcon polypropylene conical tubes (Becton Dickson Labware, Franklin Lakes, N.J.). The tubes were centrifuged for 30 min at 300×g and 4° C., and the layer of cells was removed and re-suspended at 1×10^6 cells/ml in A-MEM medium supplemented with foetal bovine serum (Moregate BioTech Ltd, Hamilton, New Zealand) (10% v/v), streptomycin sulphate (100 μg/ml) and penicillin-G (100 units/ml) (Sigma, St Louis, Mo., USA). Cells were added to a 24-well plate (Nunc, Kamstrup, Roskilde, Denmark) with LPS (Escherichia coli serotype 055:B5; Sigma, St. Louis, Mo., USA) plus thalidomide or CG at 0.04, 0.2, 1, 5, 25 & 100 μg/ml; or PG or PiG at 1, 5 & 25 μg/ml in a final volume of 1 ml. Wells containing cells only and cells plus LPS only were included as controls. After 12 hours of incubation, supernatants were removed and assayed immediately for TNF as described in section 4.
# as §1
# [4] = tested on: Colon 38 tumours; assay: Tumour growth delay, Colon 38 tumours in mice, combination with DMXAA; format: in vivo
# Source text: Mice (C57B1/6 bred at the Animal Resources Unit, University of Auckland, New Zealand) were implanted with Colon 38 tumours, obtained originally from the Mason Research Institute (Auckland, New Zewaland) by transferring 1 mm^3 pieces of the tumour into a subcutaneous opening in the left flank of anaesthetized mice. The mice with tumours were used for growth delay experiments when tumours had reached approximately 3-5 mm in diameter. Mice were divided into 10 groups, an untreated control group, a group treated intraperitoneally (i.p.) with DMXAA (5,6-dimethylxanthenone-4-acetic acid, synthesized at the Auckland Cancer Society Research Centre—ACSRC (Auckland, New Zealand) at 25 mg/kg only, and 8 groups treated with DMXAA together with the hydrolytic thalidomide metabolites PG, PiG, CG also synthesized at the ACSRC as previously described (Lu et al, 2003), or thalidomide at 100 mg/kg, or together with CG or thalidomide at 20 mg/kg or 4 mg/kg. DMXAA was dissolved in saline at 2.5 mg/ml and injected i.p. into mice in a volume of 10 μl/g body weight. Thalidomide, PG, PiG and CG were dissolved in dimethylsulphoxide at 40, 8 or 1.6 mg/ml (for dosages of 100, 20, 4 mg/kg respectively) and injected i.p. in a volume of 2.5 μl/g body weight. Tumours were measured 2-3 times weekly after treatment and tumour volumes were calculated as 0.52×a^2×b, where a and b are the minor and major axes of the tumour. The arithmetic means and standard errors were calculated for each point, counting cured animals as having zero tumour volume, and expressed as fractions of the pre-treatment volume. Growth delay was determined as the difference in the number of days required for the tumour to reach four times the pre-treatment volume.
smiles,measurement,setting,value
"O=C1CCC(NC(=O)c2ccccc2C(=O)O)C(=O)N1 (stereo not shown) [CG, 2-{[(2,6-Dioxo-3-piperidinyl)amino]carbonyl}benzoic acid]","toxicity (cell viability, MTT)",[1],No toxicity was observed
same,effect on DMXAA-induced tumour TNF level,[2]; 20 mg/kg co-administered with DMXAA 25 mg/kg,significantly increased
same,effect on DMXAA-induced serum TNF level,"[2]; 100 mg/kg co-administered with DMXAA 25 mg/kg, FIG. 3A",decreased
same,effect on DMXAA-induced tumour TNF level,[2]; 100 mg/kg co-administered with DMXAA 25 mg/kg,significantly increased
same,effect on LPS-induced TNF production,"[3]; HPBL, LPS 100 pg/ml, 12 h, all concentrations tested (PG, PiG: 1, 5, 25 μg/ml)",significantly decreased LPS-induced TNF levels in a dose-dependent manner
same,TNF inhibition in vitro compared with thalidomide,[3]; human cell system,as active as thalidomide
same,potentiation of DMXAA-induced anti-tumour effects,"[4]; 4 mg/kg co-administered with DMXAA 25 mg/kg, FIG. 1C",neither CG nor thalidomide showed potentiation
same,tumour volumes at 21 days after treatment compared with DMXAA alone,"[4]; 4 mg/kg co-administered with DMXAA 25 mg/kg, FIG. 2",no significant difference
same,potentiation of DMXAA activity against Colon 38 tumours,"[4]; 20 mg/kg co-administered with DMXAA 25 mg/kg, FIG. 1B",more effective than thalidomide plus DMXAA or DMXAA alone
same,tumour volume at 21 days after treatment compared with DMXAA alone,"[4]; 20 mg/kg co-administered with DMXAA 25 mg/kg, FIG. 2",significantly smaller tumour volume than those treated by DMXAA alone
same,tumour volumes at 21 days after treatment compared with DMXAA alone,"[4]; 100 mg/kg co-administered with DMXAA 25 mg/kg, FIG. 2",significantly smaller tumour volumes than those treated by DMXAA alone
same,inhibition of tumour growth compared with DMXAA alone,"[4]; 100 mg/kg i.p. co-administered with DMXAA 25 mg/kg, FIG. 1A",greater inhibition of tumour growth than that of DMXAA alone
same,tumour growth inhibition compared with thalidomide,"[4]; doses at or above 20 mg/kg, combined with DMXAA, FIGS. 1 & 2",greater tumour growth inhibition than thalidomide
